# Key:
# [1] = tested on: 4HNE expression in Enterococcus faecalis reference strain; assay: Western blot for 4HNE in Enterococcus faecalis reference strain; assay type: cell-based; settings: at MIC (Ru-7 5 μM, Os-7 10 µM), 15 min, 30 min, 1 h; band ∼120 kDa
# Description: (§1) The MIC values of the complexes were determined against the reference strains of S. aureus (ATCC29213) and E. faecalis. (ATCC29212) and against clinical VRE and MRSA isolates by microdilution assays (repeated at least twice in duplicates) as described in Materials and Methods. The numbers indicate how many isolates were susceptible to the compound out of those tested; i.e., 1/6 stands for 1 isolate was susceptible out of 6 tested. […] Cells were harvested and lysed. Cellular proteins was separated on a 10% SDS-PAGE gel and were blotted. Blots were probed with 4HNE antibody (top blot), the lower blot was stained with amido black. Arrows point at band of interest. Experiments were repeated three times and a representative blot is shown. On the blots brightness and contrast were adjusted. […]
# (§2) SDS-polyacrylamide gel electrophoresis and Western blot was performed as in ([Márton et al., 2018]) using an antibody against 4HNE (Abcam (ab46545) 1:1000) that was detected using a corresponding peroxidase-conjugated secondary antibody (1:10000, Cell Signaling Technology, Inc., Beverly, MA, United States). […] ECL and amido black pictures were captured using the ChemiDoc Touch Imaging System (Bio-Rad Laboratories, Inc., Hercules, California, United States) and the pictures were evaluated using the Image Lab software (Bio-Rad).
# [2] = tested on: 4HNE formation in Staphylococcus aureus reference strain; assay: Western blot for 4HNE in Staphylococcus aureus reference strain; assay type: cell-based; settings: at MIC (Ru-7 10 μM, Os-7 20 µM), 15 min, 30 min, 1 h; band ∼50 kDa
# Description: as §1, §2
# A2780 cells = assay: Annexin V - propidium iodide double staining, flow cytometry; assay type: cell-based; settings: 2 h, complexes at their IC50 (Ru-7 0.846 μM, Os-7 0.578 µM, Ir-7 0.891 µM)
# Text: We verified the toxic effects of the active Ru, Os and Ir complexes by Annexin V-FITC propidium iodide (PI) double staining. The complexes were applied in concentrations corresponding to their respective IC50 values and we have not detected increases in the apoptotic (Annexin V positive population) or the necrotic (PI positive and Annexin V—PI double positive populations) as opposed to the hydrogen peroxide-treated cells used as positive control (Figure 6).
# Cells were then stained with Annexin V and propidium iodide (PI) and cells were subjected to flow cytometry as described in Materials and Methods. The percent of cells in the quadrants are plotted. Data is represented as average ± SD, from three biological replicates, individual assays were performed in duplicates. Normal distribution was achieved by Box-Cox normalization of the data. Statistical significance was determined using a two-way ANOVA test, all measurement points were compared with each other. * indicate statistically significant differences between vehicle-treated (control) and treated cells (complexes or 300 µM H2O2) corresponding to the same quadrant (e.g., vehicle-treated double negative cells vs. H2O2-treated double negative cells) at p <0.05.
# The proportions of dead cells was assessed using the Annexin V—propidium iodide assay and was measured using flow cytometry using BD FacsCalibur (BD Biosciences, Franklin Lakes, NJ, United States) instrument and the FITC Annexin V/Dead Cell Apoptosis kit (Life Technologies, Eugene, OR, United States) according to the manufacturer’s instructions similar to ([Bai et al., 2001]). Quadrants were set based on the FITC and PI values observed for the vehicle-treated cells. Ten thousand cells were measured and the percent in the quadrants was used for the subsequent calculation.
# [3] = tested on: 4-hydroxynonenal (4HNE)-modified proteins in A2780 cells; assay: Western blot for 4HNE-modified proteins in A2780 cells; assay type: cell-based; settings: IC50 concentrations, 15 or 30 min, bands ∼70 kDa and ∼60 kDa
# Description: FIGURE 9 (A) Vitamin E, a lipid soluble antioxidant blocks the cytostatic activity of the bioactive complexes. 1.5 × 10^3 A2780 cells were plated to 96 well plates. Cells were treated with the compounds in the concentrations indicated for 48 h followed by an SRB assay. Data is represented as average ± SD, from four biological replicates; individual assays were performed in duplicates. Values were normalized for vehicle treated cells, absorbance for vehicle treated cells equals to 1. Normality was checked using the D’Agostino-Pearson normality test. […] Statistical significance was assessed using two-way ANOVA test comparing all measurement points. * and *** represent statistical significance at p <0.05 and 0.001, respectively, between the lowest concentration and the higher concentrations among non-vitamin E-treated cells. ! and !!! represent statistical significance at p <0.05 and 0.001, respectively, between the lowest concentration and the higher concentrations among vitamin E-treated cells. #, ## and ### represent statistical significance at p <0.05, p <0.01 and 0.001, respectively, between the non-vitamin E-treated vs. vitamin E-treated cells. […] Cells were harvested and lysed. Cellular proteins were separated on a 10% SDS-PAGE gel and were blotted. […]
# To complement the vitamin E experiments we assessed oxidative stress by detecting the formation of 4-hydroxynonenal (4HNE)-modified proteins, a hallmark of oxidative stress ([Ayala et al., 2014]; [Zhang and Forman, 2017]). […]
# as §2
# [4] = tested on: Enterococcus faecalis (ATCC29212); assay: Broth microdilution MIC, Enterococcus faecalis reference strain; assay type: cell-based; settings: Enterococcus faecalis ATCC29212, 24 h
# Description: (§3) The MIC values of the complexes were determined against the reference strains of S. aureus (ATCC29213) and E. faecalis. (ATCC29212) and against clinical VRE and MRSA isolates by microdilution assays (repeated at least twice in duplicates) as described in Materials and Methods. The numbers indicate how many isolates were susceptible to the compound out of those tested; i.e., 1/6 stands for 1 isolate was susceptible out of 6 tested. […] Cells were harvested and lysed. Cellular proteins was separated on a 10% SDS-PAGE gel and were blotted. Blots were probed with 4HNE antibody (top blot), the lower blot was stained with amido black. Arrows point at band of interest. Experiments were repeated three times and a representative blot is shown. On the blots brightness and contrast were adjusted. […] Each was matched to a substance and strain by its position over the x-axis categories. / Ir-7: ND and 0/3 (left plot) and ND and 0/6 (right plot) were matched to E. faecalis/VRE and S. aureus/MRSA by position only.
# (§4) We used the reference strains of Staphylococcus aureus (ATCC29213), and Enterococcus faecalis (ATCC29212) that were purchased from ATCC (Manassas, VA, United States).
# (§5) Microdilution experiments were performed according to the standards of EUCAST ([EUCAST, 2021]). […] The inoculated plates were incubated for 24 h at 37°C then were assessed visually. […] All experiments were performed at least twice in duplicates.
# [5] = tested on: Staphylococcus aureus (ATCC29213); assay: Broth microdilution MIC, Staphylococcus aureus reference strain; assay type: cell-based; settings: Staphylococcus aureus ATCC29213, 24 h
# Description: as §3, §4, §5
# [6] = Determination of the distribution coefficients (logD); assay type: physicochemical; settings: distribution coefficient
smiles,measurement,setting,value
Cc1ccc(C(C)C)cc1.F[P-](F)(F)(F)(F)F.O=C(OCC1OC(n2cc(-c3ccc4ccccc4n3)nn2)C(OC(=O)c2ccccc2)C(OC(=O)c2ccccc2)C1OC(=O)c1ccccc1)c1ccccc1.[Cl][Ru+] (mixture of isomers) [Ru-7],4HNE expression in Enterococcus faecalis reference strain,[1],induced 4HNE expression
same,4HNE formation in Staphylococcus aureus reference strain,[2],induced 4HNE formation
same,induction of cell death (apoptotic / necrotic populations),A2780 cells,do not induce cell death
same,4HNE formation (4HNE-modified proteins),[3],gross induction of 4HNE formation
same,"MIC, Reference E. faecalis",[4],5 µM
same,"MIC, Reference S. aureus",[5],10 µM
Cc1c(C)c(C)[c-](C)c1C.F[P-](F)(F)(F)(F)F.O=C(OCC1OC(n2cc(-c3ccc4ccccc4n3)nn2)C(OC(=O)c2ccccc2)C(OC(=O)c2ccccc2)C1OC(=O)c1ccccc1)c1ccccc1.[Cl][Ir+2] (mixture of isomers) [Ir-7],induction of cell death (apoptotic / necrotic populations),A2780 cells,do not induce cell death
same,4HNE formation (4HNE-modified proteins),[3],gross induction of 4HNE formation
Cc1ccc(C(C)C)cc1.F[P-](F)(F)(F)(F)F.O=C(OCC1OC(n2cc(-c3ccc4ccccc4n3)nn2)C(OC(=O)c2ccccc2)C(OC(=O)c2ccccc2)C1OC(=O)c1ccccc1)c1ccccc1.[Cl][Os+] (mixture of isomers) [Os-7],4HNE expression in Enterococcus faecalis reference strain,[1],induced 4HNE expression
same,4HNE formation in Staphylococcus aureus reference strain,[2],induced 4HNE formation
same,induction of cell death (apoptotic / necrotic populations),A2780 cells,do not induce cell death
same,4HNE formation (4HNE-modified proteins),[3],gross induction of 4HNE formation
same,LogD,[6],2.33
same,"MIC, Reference E. faecalis",[4],10 µM
same,"MIC, Reference S. aureus",[5],20 µM

# — article PMC9923724, “Half sandwich-type osmium, ruthenium, iridium and rhodium complexes with bidentate glycosyl heterocyclic ligands induce cytostasis in platinum-resistant ovarian cancer cells and bacteriostasis in Gram-positive multiresistant bacteria” (Frontiers in Chemistry, 2023)
